Data from ChEMBL document CHEMBL3396981, “Synthesis and in vitro biological evaluation of 2-(phenylcarbamoyl)phenyl 4-substituted benzoates” (Bioorg Med Chem, 2015).
Values after ≈ are worked out from the molar mass of the structure shown. Active and inactive are the calls of the source. The calls are words filed in the database; no cut-off is given here. Bridge positions count the residues as written; N and C are the ends. Square brackets hold non-standard residues; d marks the D form. Peptide text beside a SMILES is read from it. * marks the point of attachment. Ileψ(thiazoline)Cys = CC[C@H](C)[C@H](N)C1=N[C@H](C(=O)*)CS1; dOrn = NCCC[C@@H](N)C(=O)O

Key:
[1] = tested on: Mycobacterium tuberculosis; assay: Antimycobacterial activity against Mycobacterium tuberculosis H37Rv 331/88 after 21 days by microdilution method; format: functional; details: H37Rv 331/88, 504 h
Mycobacterium kansasii [2] = assay: Antimycobacterial activity against Mycobacterium kansasii 6509/96 after 14 days by microdilution method; format: functional; details: 6509/96, 336 h
Mycobacterium kansasii [3] = assay: Antimycobacterial activity against Mycobacterium kansasii 6509/96 after 7 days by microdilution method; format: functional; details: 6509/96, 168 h
[4] = Selectivity index, ratio of IC50 for human HepG2 cells to MIC for Mycobacterium tuberculosis; format: toxicity, cell-based; details: read-out: Selectivity Index
Mycobacterium kansasii [5] = assay: Antimycobacterial activity against Mycobacterium kansasii 6509/96 after 21 days by microdilution method; format: functional; details: 6509/96, 504 h
Mycobacterium kansasii [6] = assay: Antimycobacterial activity against Mycobacterium kansasii 235/80 after 7 days by microdilution method; format: functional; details: 235/80, 168 h
Mycobacterium avium [7] = assay: Antimycobacterial activity against INH,RIF,OFX,EMB-resistant Mycobacterium avium 330/88 after 21 days by microdilution method; format: functional; details: 330/88, 504 h
Mycobacterium avium [8] = assay: Antimycobacterial activity against INH,RIF,OFX,EMB-resistant Mycobacterium avium 330/88 after 14 days by microdilution method; format: functional; details: 330/88, 336 h
Mycobacterium kansasii [9] = assay: Antimycobacterial activity against Mycobacterium kansasii 235/80 after 14 days by microdilution method; format: functional; details: 235/80, 336 h
[10] = tested on: Mycobacterium tuberculosis; assay: Antimycobacterial activity against Mycobacterium tuberculosis H37Rv 331/88 after 14 days by microdilution method; format: functional; details: H37Rv 331/88, 336 h
HepG2 [11] = assay: Cytotoxicity against human HepG2 cells after 72 hrs by MTT assay; format: cell-based; details: HepG2, 72 h
in vitro = details: human, HepG2 cells
Description: Selectivity index, ratio of IC50 for human HepG2 cells to MIC for Mycobacterium kansasii 6509/96

Mycobacterium kansasii [12] = assay: Antimycobacterial activity against Mycobacterium kansasii 235/80 after 21 days by microdilution method; format: functional; details: 235/80, 504 h
Pichia kudriavzevii = assay: Antifungal activity against Candida krusei E28 after 24 to 48 hrs by broth dilution method; format: functional, organism-based
[13] = tested on: Staphylococcus epidermidis; assay: Antibacterial activity against Staphylococcus epidermidis H 6966/08 after 48 hrs by broth microdilution method; format: functional; details: H 6966/08, 48 h
HepG2 [14] = assay: Cytostatic activity against human HepG2 cells after 72 hrs by MTT assay; format: functional, cell-based; details: HepG2, 72 h
Enterococcus sp. [15] = assay: Antibacterial activity against Enterococcus sp. J 14365/08 after 24 hrs by broth microdilution method; format: functional; details: J 14365/08, 24 h
Lichtheimia corymbifera = assay: Antifungal activity against Absidia corymbifera 272 after 24 to 48 hrs by broth dilution method; format: functional, organism-based
Aspergillus fumigatus = assay: Antifungal activity against Aspergillus fumigatus 231 after 24 to 48 hrs by broth dilution method; format: functional, organism-based
Staphylococcus aureus [16] = assay: Antibacterial activity against Staphylococcus aureus CCM 4516/08 after 24 hrs by broth microdilution method; format: functional; details: CCM 4516/08, 24 h
[17] = Selectivity index, ratio of IC50 for human HepG2 cells to MIC for atypical mycobacteria
[18] = tested on: Staphylococcus epidermidis; assay: Antibacterial activity against Staphylococcus epidermidis H 6966/08 after 24 hrs by broth microdilution method; format: functional; details: H 6966/08, 24 h
Staphylococcus aureus [19] = assay: Antibacterial activity against methicillin-resistant Staphylococcus aureus H 5996/08 after 48 hrs by broth microdilution method; format: functional; details: H 5996/08, 48 h
[20] = tested on: Trichophyton mentagrophytes; assay: Antifungal activity against Trichophyton mentagrophytes 445 after 24 to 48 hrs by broth dilution method; format: functional, organism-based
[21] = Selectivity index, ratio of IC50 for human HepG2 cells to MIC for Staphylococci
Trichosporon asahii [22] = assay: Antifungal activity against Trichosporon asahii 1188 after 24 hrs by broth microdilution method; format: functional; details: Trichosporon asahii, 1188, 24 h
Staphylococcus aureus [23] = assay: Antibacterial activity against Staphylococcus aureus CCM 4516/08 after 48 hrs by broth microdilution method; format: functional; details: CCM 4516/08, 48 h
Staphylococcus aureus [24] = assay: Antibacterial activity against methicillin-resistant Staphylococcus aureus H 5996/08 after 24 hrs by broth microdilution method; format: functional; details: H 5996/08, 24 h
Enterococcus sp. [25] = assay: Antibacterial activity against Enterococcus sp. J 14365/08 after 48 hrs by broth microdilution method; format: functional; details: J 14365/08, 48 h
Candida tropicalis = assay: Antifungal activity against Candida tropicalis 156 after 24 to 48 hrs by broth dilution method; format: functional, organism-based
Nakaseomyces glabratus = assay: Antifungal activity against Candida glabrata 20/I after 24 to 48 hrs by broth dilution method; format: functional, organism-based
Trichosporon asahii [26] = assay: Antifungal activity against Trichosporon asahii 1188 after 48 hrs by broth microdilution method; format: functional; details: Trichosporon asahii, 1188, 48 h
Candida albicans = assay: Antifungal activity against Candida albicans ATCC 44859 after 24 to 48 hrs by broth dilution method; format: functional, organism-based
[27] = Selectivity index, ratio of IC50 for human HepG2 cells to MIC for Staphylococcus aureus CCM 4516/08

| Compound | MIC [1] | MIC (Mycobacterium kansasii [2]) | MIC (Mycobacterium kansasii [3]) | selectivity ratio [4] | MIC (Mycobacterium kansasii [5]) | MIC (Mycobacterium kansasii [6]) | MIC (Mycobacterium avium [7]) | MIC (Mycobacterium avium [8]) | MIC (Mycobacterium kansasii [9]) | MIC [10] | IC50 (HepG2 [11]) | MIC (Mycobacterium kansasii [12]) | MIC [13] | MIC (Enterococcus sp. [15]) | MIC (Staphylococcus aureus [16]) | MIC [18] | MIC (Staphylococcus aureus [19]) | MIC (Staphylococcus aureus [23]) | MIC (Staphylococcus aureus [24]) | MIC (Enterococcus sp. [25]) | other results |
| --- | --- | --- | --- | --- | --- | --- | --- | --- | --- | --- | --- | --- | --- | --- | --- | --- | --- | --- | --- | --- | --- |
| NNC(=O)c1ccncc1 [ISONIAZID] | 0.5 µM (≈ 0.0686 µg/mL) | 4 µM (≈ 0.549 µg/mL) | 2 µM (≈ 0.274 µg/mL) | > 250 | 4 µM (≈ 0.549 µg/mL) | > 250 µM | > 250 µM | > 250 µM | > 250 µM | 0.5 µM (≈ 0.0686 µg/mL) | > 250 µM | > 250 µM | – | – | – | – | – | – | – | – | selectivity ratio (in vitro): ≥ 31.3 |
| O=C(Oc1ccc(Cl)cc1C(=O)Nc1ccc(Cl)c(Cl)c1)c1ccc(Br)cc1 | 1 µM (≈ 0.5 µg/mL) | 4 µM (≈ 2 µg/mL) | 1 µM (≈ 0.5 µg/mL) | > 50 | 4 µM (≈ 2 µg/mL) | 2 µM (≈ 0.999 µg/mL) | 8 µM (≈ 4 µg/mL) | 8 µM (≈ 4 µg/mL) | 4 µM (≈ 2 µg/mL) | 1 µM (≈ 0.5 µg/mL) | > 50 µM | 4 µM (≈ 2 µg/mL) | 0.49 µM (≈ 0.245 µg/mL) | 31.2 µM (≈ 15.6 µg/mL) | 0.49 µM (≈ 0.245 µg/mL) | 0.49 µM (≈ 0.245 µg/mL) | 0.49 µM (≈ 0.245 µg/mL) | 0.49 µM (≈ 0.245 µg/mL) | 0.49 µM (≈ 0.245 µg/mL) | 500 µM (≈ 250 µg/mL) | Activity (Pichia kudriavzevii): inactive; IC50 (HepG2 [14]): 2.5 µM; Activity (Lichtheimia corymbifera): inactive; Activity (Aspergillus fumigatus): inactive; Selectivity Index [17]: >6.25; Activity [20]: inactive; Selectivity Index [21]: >102; MIC (Trichosporon asahii [22]): 500 µM (≈ 250 µg/mL); Activity (Candida tropicalis): inactive; Activity (Nakaseomyces glabratus): inactive; MIC (Trichosporon asahii [26]): > 500 µM; Activity (Candida albicans): inactive |
| CC1(C)S[C@@H]2[C@H](NC(=O)Cc3ccccc3)C(=O)N2[C@H]1C(=O)O [PENICILLIN G] | – | – | – | – | – | – | – | – | – | – | > 10000 µM | – | 250 µM (≈ 83.6 µg/mL) | 7.81 µM (≈ 2.61 µg/mL) | 0.98 µM (≈ 0.328 µg/mL) | 250 µM (≈ 83.6 µg/mL) | 125 µM (≈ 41.8 µg/mL) | 0.98 µM (≈ 0.328 µg/mL) | 62.5 µM (≈ 20.9 µg/mL) | 15.6 µM (≈ 5.22 µg/mL) | Selectivity Index [27]: >10204 |
| O=C(Oc1ccc(Cl)cc1C(=O)Nc1ccc(Cl)c(Cl)c1)c1ccc([N+](=O)[O-])cc1 | 1 µM (≈ 0.466 µg/mL) | 4 µM (≈ 1.86 µg/mL) | 2 µM (≈ 0.931 µg/mL) | > 50 | 4 µM (≈ 1.86 µg/mL) | 2 µM (≈ 0.931 µg/mL) | 8 µM (≈ 3.73 µg/mL) | 8 µM (≈ 3.73 µg/mL) | 4 µM (≈ 1.86 µg/mL) | 0.5 µM (≈ 0.233 µg/mL) | > 50 µM | 4 µM (≈ 1.86 µg/mL) | 0.49 µM (≈ 0.228 µg/mL) | 62.5 µM (≈ 29.1 µg/mL) | 0.49 µM (≈ 0.228 µg/mL) | 0.49 µM (≈ 0.228 µg/mL) | 0.49 µM (≈ 0.228 µg/mL) | 0.49 µM (≈ 0.228 µg/mL) | 0.49 µM (≈ 0.228 µg/mL) | > 125 µM | Activity (Pichia kudriavzevii): inactive; IC50 (HepG2 [14]): 3.55 µM; Activity (Lichtheimia corymbifera): inactive; Activity (Aspergillus fumigatus): inactive; Selectivity Index [17]: >6.25; Activity [20]: inactive; Selectivity Index [21]: >102; MIC (Trichosporon asahii [22]): 31.2 µM (≈ 14.6 µg/mL); Activity (Candida tropicalis): inactive; Activity (Nakaseomyces glabratus): inactive; MIC (Trichosporon asahii [26]): > 125 µM; Activity (Candida albicans): inactive |
| CC[C@H](C)[C@H](N)C1=N[C@H](C(=O)N[C@@H](CC(C)C)C(=O)N[C@H](CCC(=O)O)C(=O)N[C@H](C(=O)N[C@H]2CCCCNC(=O)[C@H](CC(N)=O)NC(=O)[C@@H](CC(=O)O)NC(=O)[C@H](Cc3cnc[nH]3)NC(=O)[C@@H](Cc3ccccc3)NC(=O)[C@H]([C@@H](C)CC)NC(=O)[C@@H](CCCN)NC2=O)[C@@H](C)CC)CS1 [BACITRACIN] ({Ileψ(thiazoline)Cys}-L[dE]IK[dOrn]I[dF]H[dD]N; lactam 4-C) | – | – | – | – | – | – | – | – | – | – | 255 µM | – | 31.2 µM (≈ 44.5 µg/mL) | 15.6 µM (≈ 22.2 µg/mL) | 7.81 µM (≈ 11.1 µg/mL) | 15.6 µM (≈ 22.2 µg/mL) | 15.6 µM (≈ 22.2 µg/mL) | 15.6 µM (≈ 22.2 µg/mL) | 15.6 µM (≈ 22.2 µg/mL) | 62.5 µM (≈ 88.9 µg/mL) | Selectivity Index [21]: 8.1 |
